Assay results as given in patent EP4678638A1, “NEW E3 UBIQUITIN LIGASE LIGAND, PROTEIN DEGRADATION AGENT AND USE THEREOF” (priority 2023, dated 2024).

Assays:
SW620 = assay: CCK-8 proliferation, SW620; assay type: cell-based; details: Homo sapiens, SW-620; CCK-8; 96 hours; read-out: Inhibitory activity (IC50) on tumor cell proliferation, SW620
Protocol: (§1) The tumor cells used herein were cultured in a cell culture medium listed in table A1 at 37°C in an incubator with 5% CO2. Prior to experimentation, all cell lines used were correctly identified by STR profiling, and tested negative for mycoplasma contamination using a mycoplasma detection kit through routine screenings. Table A1. Tumor cells and cell culture medium used in the present disclosure
(§2) IC50 values of the compounds of the present disclosure (including the compounds in Table 1, and compounds of examples) were measured using the Meilun Cell Counting Kit-8 kit from Dalian Meilun Biotech Co., Ltd. Assay details are as follows: tumor cells were seeded in a 96-well plate at a density listed in Table A2. After 24h, 100 µL of the inoculated cells were treated with 0.5µL of the compounds of the present disclosure (including the compounds in Tables 1 and 2, and compounds of examples) at 10 different successively decreasing concentrations (starting at the highest concentration of 10µM; 5-fold serial dilutions). After the cells were treated with the compounds of the present disclosure for a period of time, the cell viability detection reagent was added to the culture medium for cell viability assessment according to the instructions provided with the CCK-8 kit. […] The growth inhibition of the compounds of the present disclosure on cells was plotted by Prism Graphpad software, and the IC50 values of the compounds of the present disclosure were calculated therefrom. […] Seeding protocol and treatment time for tumor cells

PC-9 = assay: CCK-8 proliferation, PC-9; assay type: cell-based, Human; details: Homo sapiens, PC-9; CCK-8; 96 hours; read-out: Inhibitory activity (IC50) on tumor cell proliferation, PC-9
Procedure, shortened: (§3)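 Cells seeded, then after 24 h treated with 10 concentrations (top 10 µM, 5-fold serial dilution) for a line-specific time at 37°C, 5% CO2. Viability read by CCK-8; IC50 fitted from growth-inhibition curves.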

H2228 = assay: CCK-8 proliferation, NCI-H2228 (H2228); assay type: cell-based; details: Homo sapiens, NCI-H2228; CCK-8; 96 hours; read-out: Inhibitory activity (IC50) on tumor cell proliferation, H2228
Procedure, shortened: as §3

H1975 = assay: CCK-8 proliferation, NCI-H1975 (H1975); assay type: cell-based, Human; details: Homo sapiens, NCI-H1975; CCK-8; 96 hours; read-out: Inhibitory activity (IC50) on tumor cell proliferation, H1975
Procedure, shortened: as §3

MM.1R = assay: CCK-8 proliferation, MM.1R; assay type: cell-based; details: CCK-8, 72 hours, read-out: Inhibitory activity (IC50) on tumor cell proliferation, MM.1R
Protocol: as §1, §2

CCRF-CEM = assay: CCK-8 proliferation, CCRF-CEM; assay type: cell-based, Human; details: Homo sapiens, CCRF-CEM; CCK-8; 96 hours; read-out: Inhibitory activity (IC50) on tumor cell proliferation, CCRF-CEM
Procedure, shortened: as §3

Jurkat = assay: CCK-8 proliferation, Jurkat; assay type: cell-based, Human; details: Homo sapiens, Jurkat; CCK-8; 96 hours; read-out: Inhibitory activity (IC50) on tumor cell proliferation, Jurkat
Procedure, shortened: as §3

[1] = biological target: T1, human Cereblon WT GST-tagged protein (Homo sapiens, UniProt Q96SW2); assay: CRBN binding, HTRF (CEREBLON BINDING kit); details: Table II-2, CRBN binding screening, HTRF; for inhibition at 0.5 µM: read-out: Inhibition rate (%) at 0.5µM; for inhibition at 2 µM: read-out: Inhibition rate (%) at 2 µM
T1 construct: purchased CISBIO 64BDCRBNPEH
Procedure, shortened: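 After 3 h at room temperature, emission at 665 and 620 nm was measured in a homogeneous time-resolved fluorescence format. Compounds competed with a Thalidomide-Re probe for GST-tagged wild-type human CRBN, which was labelled with a Eu anti-GST antibody.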

MM.1S = assay: CCK-8 proliferation, MM.1S; assay type: cell-based; details: Homo sapiens, MM1.S; CCK-8; 72 hours; read-out: Inhibitory activity (IC50) on tumor cell proliferation, MM1S
Procedure, shortened: as §3

Kasumi-1 = assay: CCK-8 proliferation, Kasumi-1; assay type: cell-based, Human; details: Homo sapiens, Kasumi 1, 72 hours, read-out: Inhibitory activity (IC50) on tumor cell proliferation, Kasumi-1
Protocol: as §1, §2

CDK6 = biological target: T2, CDK6 (Homo sapiens, UniProt Q00534); assay: Western blot degradation of CDK6 (MDA-MB-231 Cell); assay type: cell-based; details: Table D3
T2 construct: evaluate the effects of the compounds of the present disclosure on the expression of target proteins in cells; endogenous in cells; host or cells: MDA-MB-231
Procedure, shortened: (§4)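 Quantification by ImageJ densitometry of Western blot bands: DC50 is the fitted concentration halving band intensity relative to DMSO. Percent remaining uses internal-control normalization, and degradation rate is its complement.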

CDK4 = biological target: T3, CDK4 (Homo sapiens, UniProt P11802); assay: Western blot degradation of CDK4 (MDA-MB-231 Cell); assay type: cell-based; details: Table D3
T3 construct: evaluate the effects of the compounds of the present disclosure on the expression of target proteins in cells; endogenous in cells; host or cells: MDA-MB-231
Procedure, shortened: as §4

EGFR = assay: Western blot degradation of EGFR (H1975 Cell); assay type: cell-based, Human; details: Table D2
Procedure, shortened: as §4

HCC827 = assay: CCK-8 proliferation, HCC827; assay type: cell-based, Human; details: Homo sapiens, HCC827; CCK-8; 96 hours; read-out: Inhibitory activity (IC50) on tumor cell proliferation, HCC827
Protocol: as §1, §2

[2] = test system: H1975-1µM Osimertinib cells; assay: CCK-8 proliferation, osimertinib-resistant H1975 cells; assay type: cell-based, Human; details: Homo sapiens, NCI-H1975; CCK-8; osimertinib-resistant H1975 cells obtained by treating H1975 cells with 1 µM Osimertinib for 3 months; read-out: Inhibitory activity (IC50) on tumor cell proliferation, H1975-1µm Osimertinib
Protocol: as §1, §2

T1 sequence (Q96SW2 whole entry): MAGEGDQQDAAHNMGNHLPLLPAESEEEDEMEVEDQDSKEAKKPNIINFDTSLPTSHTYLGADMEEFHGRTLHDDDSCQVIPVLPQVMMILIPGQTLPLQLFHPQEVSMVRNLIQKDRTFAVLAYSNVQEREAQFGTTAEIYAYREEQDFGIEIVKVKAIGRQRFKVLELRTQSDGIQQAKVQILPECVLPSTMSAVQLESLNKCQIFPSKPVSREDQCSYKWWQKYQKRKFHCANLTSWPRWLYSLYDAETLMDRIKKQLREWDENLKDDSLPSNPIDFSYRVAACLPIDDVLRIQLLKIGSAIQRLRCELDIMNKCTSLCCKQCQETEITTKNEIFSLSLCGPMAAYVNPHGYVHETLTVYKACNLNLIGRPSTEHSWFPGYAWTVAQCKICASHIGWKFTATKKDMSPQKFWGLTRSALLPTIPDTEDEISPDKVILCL
T2 sequence (Q00534 whole entry): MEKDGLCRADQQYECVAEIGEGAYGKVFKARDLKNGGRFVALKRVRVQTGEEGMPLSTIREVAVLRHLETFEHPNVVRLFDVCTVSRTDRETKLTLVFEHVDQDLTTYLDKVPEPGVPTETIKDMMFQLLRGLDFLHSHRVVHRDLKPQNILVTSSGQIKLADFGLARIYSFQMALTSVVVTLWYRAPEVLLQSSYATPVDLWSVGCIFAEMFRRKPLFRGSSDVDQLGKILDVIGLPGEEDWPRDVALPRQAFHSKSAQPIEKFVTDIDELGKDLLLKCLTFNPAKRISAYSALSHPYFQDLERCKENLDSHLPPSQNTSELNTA
T3 sequence (P11802 whole entry): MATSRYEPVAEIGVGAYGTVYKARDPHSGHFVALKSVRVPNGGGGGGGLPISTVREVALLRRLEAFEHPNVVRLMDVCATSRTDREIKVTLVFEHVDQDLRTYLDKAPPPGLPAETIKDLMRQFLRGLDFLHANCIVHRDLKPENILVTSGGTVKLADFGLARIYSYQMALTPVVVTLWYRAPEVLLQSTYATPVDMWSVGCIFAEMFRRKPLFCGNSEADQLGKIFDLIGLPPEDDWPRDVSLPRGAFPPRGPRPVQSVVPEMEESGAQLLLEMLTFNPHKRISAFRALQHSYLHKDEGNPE

IC50 (SW620) [nM]	IC50 (PC-9) [nM]	IC50 (H2228) [nM]	IC50 (H1975) [nM]	IC50 (MM.1R) [nM]	Compound	also measured
500 to 1000	–	–	–	100 to 500	COc1cc(C(=O)NC2CCN(Cc3cccc(N4CCC(=O)NC4=O)c3)CC2)c(F)cc1Nc1ncc(C(F)(F)F)c(Oc2cccc3c2C(=O)N(C)C3)n1 [GT-04257, N-(1-(3-(2,4-dioxotetrahydropyrimidin-1(2H)-yl)benzyl)piperidin-4-yl)-2-fluoro-5-methoxy-4-((4-((2-methyl-3-oxoisoindolin-4-yl)oxy)-5-(trifluoromethyl)pyrimidin-2-yl)amino)benzamide]	IC50 (CCRF-CEM): 100 to 500 nM; IC50 (Jurkat): 100 to 500 nM; inhibition at 0.5 µM [1]: 60 to 80%; inhibition at 2 µM [1]: 80 to 100%
500 to 1000	500 to 1000	100 to 500	–	< 1	NC(=O)c1ncc(N2CCCCC2)nc1Nc1ccc(C2CCN(Cc3cccc(NC4CCC(=O)NC4=O)c3)CC2)cc1 (stereo not drawn) [GT-04791, 3-((4-(1-(3-((2,6-dioxopiperidin-3-yl)amino)benzyl)piperidin-4-yl)phenyl)amino)-5-(piperidin-1-yl)pyrazine-2-carboxamide]	–
–	1 to 10	–	100 to 500	–	O=C1CCN(c2ccc(CN3CCN(C4CCN(c5ccc(Nc6ncc7nc(Nc8ccccc8)n(C8CCCC8)c7n6)cc5)CC4)CC3)cc2)C(=O)N1 [GT-05917, 1-(4-((4-(1-(4-((9-cyclopentyl-8-(phenylamino)-9H-purin-2-yl)amino)phenyl)piperidin-4-yl)piperazin-1-yl)methyl)phenyl)dihydropyrimidine-2,4(1H,3H)-dione]	Degradation of substrate protein EGFR (substrate protein remaining %) (EGFR): A (A is defined as 0% ≤ substrate protein remaining % ≤ 80%); IC50 (HCC827): 1 to 10 nM; IC50 [2]: 500 to 1000 nM
–	–	–	–	500 to 1000	CN(Cc1ccc(C2CCC(=O)NC2=O)cc1)C1CCN(c2ccc(C(N)=O)c(-c3ccc(Oc4ccccc4)cc3)n2)CC1 (stereo not drawn) [GT-03828, 6-(4-((4-(2,6-dioxopiperidin-3-yl)benzyl)(methyl)amino)piperidin-1-yl)-2-(4-phenoxyphenyl)nicotinamide]	–
–	100 to 500	500 to 1000	–	500 to 1000	CN1CCN([C@@H]2CCCN(c3cnc(C(N)=O)c(Nc4ccc(C5CCN(Cc6cccc(N7CCC(=O)NC7=O)c6)CC5)cc4)n3)C2)C1=O [GT-04800, (R)-3-((4-(1-(3-(2,4-dioxotetrahydropyrimidin-1(2H)-yl)benzyl)piperidin-4-yl)phenyl)amino)-5-(3-(3-methyl-2-oxoimidazolidin-1-yl)piperidin-1-yl)pyrazine-2-carboxamide]	–
–	50 to 100	–	10 to 50	–	COc1cc(N2CCC(N(C)Cc3cccc(N4CCC(=O)NC4=O)c3)CC2)c(C)cc1Nc1ncc(Br)c(Nc2ccc3nccnc3c2P(C)(C)=O)n1 [GT-04214, 1-(3-(((1-(4-((5-bromo-4-((5-(dimethylphosphoryl)quinoxalin-6-yl)amino)pyrimidin-2-yl)amino)-5-methoxy-2-methylphenyl)piperidin-4-yl)(methyl)amino)methyl)phenyl)dihydropyrimidine-2,4(1H,3H)-dione]	Degradation of substrate protein EGFR (substrate protein remaining %) (EGFR): A (A is defined as 0% ≤ substrate protein remaining % ≤ 80%); IC50 (HCC827): 100 to 500 nM; IC50 [2]: 100 to 500 nM

The remaining lines, values behind:

Compound	IC50 (SW620) [nM]	IC50 (PC-9) [nM]	IC50 (H2228) [nM]	IC50 (H1975) [nM]	IC50 (MM.1R) [nM]	also measured
NC(=O)c1ncc(N2CCCCC2)nc1Nc1ccc(C2CCN(Cc3ccc(C4CCC(=O)NC4=O)cc3)CC2)cc1 (stereo not drawn) [GT-04785, 3-((4-(1-(4-(2,6-dioxopiperidin-3-yl)benzyl)piperidin-4-yl)phenyl)amino)-5-(piperidin-1-yl)pyrazine-2-carboxamide]	500 to 1000	100 to 500	100 to 500	500 to 1000	100 to 500	–
CN1CCN([C@@H]2CCCN(c3cnc(C(N)=O)c(Nc4ccc(C5CCN(Cc6ccc(N7CCC(=O)NC7=O)cc6F)CC5)cc4)n3)C2)C1=O [GT-04803, (R)-3-((4-(1-(4-(2,4-dioxotetrahydropyrimidin-1(2H)-yl)-2-fluorobenzyl)piperidin-4-yl)phenyl)amino)-5-(3-(3-methyl-2-oxoimidazolidin-1-yl)piperidin-1-yl)pyrazine-2-carboxamide]	100 to 500	100 to 500	100 to 500	500 to 1000	100 to 500	–
NC(=O)c1ncc(N2CCCCC2)nc1Nc1ccc(C2CCN(Cc3cccc(N4CCC(=O)NC4=O)c3)CC2)cc1 [GT-04787, 3-((4-(1-(3-(2,4-dioxotetrahydropyrimidin-1(2H)-yl)benzyl)piperidin-4-yl)phenyl)amino)-5-(piperidin-1-yl)pyrazine-2-carboxamide]	–	100 to 500	100 to 500	500 to 1000	500 to 1000	–
CN1CCN([C@@H]2CCCN(c3cnc(C(N)=O)c(Nc4ccc(C5CCN(Cc6ccc(N7CCC(=O)NC7=O)cc6)CC5)cc4)n3)C2)C1=O [GT-04802, (R)-3-((4-(1-(4-(2,4-dioxotetrahydropyrimidin-1(2H)-yl)benzyl)piperidin-4-yl)phenyl)amino)-5-(3-(3-methyl-2-oxoimidazolidin-1-yl)piperidin-1-yl)pyrazine-2-carboxamide]	–	100 to 500	100 to 500	500 to 1000	100 to 500	–
Cc1nc2c(F)cc(-c3nc(Nc4ccc(N5CCC(N6CCN(Cc7ccc(C8CCC(=O)NC8=O)cc7)CC6)CC5)cn4)ncc3F)cc2n1C(C)C (stereo not drawn) [GT-03905, 3-(4-((4-(1-(6-((5-fluoro-4-(4-fluoro-1-isopropyl-2-methyl-1H-benzo[d]imidazol-6-yl)pyrimidin-2-yl)amino)pyridin-3-yl)piperidin-4-yl)piperazin-1-yl)methyl)phenyl)piperidine-2,6-dione]	–	–	–	100 to 500	50 to 100	IC50 (MM.1S): 50 to 100 nM; IC50 (Kasumi-1): 50 to 100 nM; IC50 (CCRF-CEM): 100 to 500 nM; Degradation of substrate protein CDK6 (substrate protein remaining %) (CDK6): A (A is defined as 0% ≤ substrate protein remaining % ≤ 80%); inhibition at 0.5 µM [1]: 40 to 53%; inhibition at 2 µM [1]: 53 to 60%; Degradation of substrate protein CDK4 (substrate protein remaining %) (CDK4): A (A is defined as 0% ≤ substrate protein remaining % ≤ 80%)
